Assay results published in paper PMC5640650, “NatD promotes lung cancer progression by preventing histone H4 serine phosphorylation to activate Slug expression” (Nature Communications, 2017).

What was measured:
[1] = tested on: promoters of Zeb1, Zeb2, Twist1, and Snail; experiment: ChIP assay on the promoters of Zeb1, Zeb2, Twist1, and Snail, H1299 cells; assay type: cell-based, human; settings: vs Scr
Method: ChIP assays were performed with H1299 cells in accordance with standard protocols. Normal rabbit IgG served as the control. ChIP samples were analyzed by quantitative real-time PCR using the FastStart Universal SYBR Green Master (Roche). A standard curve was prepared for each set of primers using serial titration of the input DNA. The percentage of ChIP DNA was calculated relative to the input DNA from primer-specific standard curves using the Rotor-Gene 6000 Series Software 1.7. The primer sequences for ChIP are listed in Supplementary Table 4. Antibodies used were: H4S1ph (Abcam; ab14723), H4K5ac (Millipore; CS204381), H4R3me2a (Active Motif; 39705), H4R3me2s (Abcam; ab5823), CK2α (Abcam; ab70774), H3K4me3 (Abcam; ab8580), and H3K27me3 (Abcam; ab6002).
Supplementary Figure 7. Knockdown of NatD has no effect on enrichment of H4S1ph on some EMT-related gene promoters. (a-d) ChIP analysis of the enrichment of Nt-ac-H4, H4S1ph, H3K4me3 and H3K27me3 on the promoter of Zeb1(a), Zeb2(b), Twist1(c), and Snail (d) in Scr and NatD-KD H1299 cells. IgG served as a negative control. Results are shown as mean ± s.d. of three independent experiments; two-tailed Student’s t-test, **P<0.01 or *P<0.05 compared to Scr […]
(1 picture or pasted object on this page, not shown here)

H1299 cells = experiment: qPCR and western blot of EMT and proliferation genes, H1299 cells; assay type: cell-based, human
From the text: Fig. 4 Silencing NatD suppresses cancer cell EMT by downregulating Slug. a Representative phase contrast images of Scr and NatD-KD H1299 cells treated with TGF-β1. Data are representative of three independent experiments. Scale bar, 100 μm. b Quantitative real-time PCR analysis of mRNA levels of indicated key EMT-related genes in Scr and NatD-KD H1299 cells normalized to GAPDH in the absence or presence of TGF-β1. Results are shown as mean ± s.d. of three independent experiments. Two-tailed Student’s t-test was used. **P < 0.01 or *P < 0.05 compared with the indicated control. c Western blot analysis of indicated protein levels in Scr and NatD-KD H1299 cells in the absence or presence of TGF-β1. GAPDH served as a loading control. Data are representative of three independent experiments. d Immunofluorescence analysis of Scr and NatD-KD H1299 cells in the absence or presence of TGF-β1 stained for E-cadherin and N-cadherin. Data are representative of three independent experiments. Scale bar, 20 μm. Migration (e, top) and invasion (f, top) of Scr cells, NatD-KD cells, and NatD-KD cells with enforced Slug expression (NatD-KD + Slug). (bottom panels) Cells were counted in at least four random microscope fields (×100 magnification) for the corresponding assays; migration and invasion are expressed as a percentage of control. Results are shown as mean ± s.d. of three independent experiments. Two-tailed Student’s t-test was used. **P < 0.01 compared with the indicated control. g Quantitative real-time PCR analysis of the mRNA levels of NatD and indicated key EMT-related genes (normalized to GAPDH) in Scr cells, NatD-KD cells, and NatD-KD + Slug cells. Results are shown as mean ± s.d. of three independent experiments. Two-tailed Student’s t-test was used. **P < 0.01 or *P < 0.05 compared with Scr or indicated control. h Western blot analysis of indicated protein levels in Scr cells, NatD-KD cells, and NatD-KD + Slug cells. GAPDH served as a loading control. Data are representative of three independent blots. i Pearson correlation scatter plot of the H score of Slug and NatD in human lung carcinoma (n = 147); r = 0.6672, P < 0.0001
Cellular proteins were extracted by RIPA lysis buffer at high salt concentration (420 mM NaCl), and western blot analysis was performed in accordance with standard protocols. Scans of enhanced chemiluminescence (ECL) films showing uncropped blots are presented in Supplementary Fig. 10. The following antibodies were used for western blotting: NatD (Abcam; ab106408, 1:1000), GAPDH (MBL International; M171-3, 1:5000), Vimentin (BD Biosciences; 550513, 1:1000), E-cadherin (BD Biosciencs; 610181, 1:1000), N-cadherin (Abcam; ab76057, 1:1000), Slug (Abcam; ab27568, 1:500), Zeb1 (ABclonal; A5600, 1:1000), Zeb2 (Abcam; ab138222, 1:500), Twist1 (ABclonal; A7314, 1:1000), Snail (Santa Cruz Biotechnology; sc-271977, 1:500), Histone H4 (PTM Biolabs; PTM-1004, 1:2000), Histone H3(Genscript; A01502, 1:1000), H4K5ac (Millipore; CS204381, 1:1000), H4K8ac (Millipore; CS204357, 1:1000), H4K12ac (Millipore; 06-1352, 1:1000), H4R3me2a (Active Motif; 39705, 1:1000), H4R3me2s (Abcam; ab5823, 1:1000), H4S1ph (Abcam; ab14723, 1:1000), CK2α (Abcam; ab70774, 1:2000), Lamin A/C (Genscript; A01455, 1:2000), and Hsp70 (Genscript; A01236, 1:1000). Peptide pulldown assays were performed according to standard protocols, [44]. Briefly, we coupled streptavidin beads to 2 μg C-terminal biotin-tagged 31-mer N-terminal peptides of histone H4 and to acetylated H4 (Nt-ac-H4), as well as to C-terminal biotin-tagged 20-mer N-terminal peptides of non-acetylated histone H3. The resulting streptavidin-coupled peptides were incubated with H1299 cellular extracts prepared with high salt extraction (420 mM NaCl). We eluted specifically bound protein from stringently washed beads, separated the samples by SDS-PAGE, and visualized proteins by western blot with anti-CK2α antibody. […]

In the case of “NatD-KD2: Human NatD shRNA KD2: 5′-GGTTGAATGTCTCCATTGA-3′, lentiviral (shRNA lentiviral)”, the “enrichment of H4S1ph, H3K4me3, and H3K27me3 on Zeb1, Zeb2, Twist1, Snail promoters” value [1] is reported as “unchanged”, the “enrichment of Nt-ac-H4 on Zeb1, Zeb2, Twist1, Snail promoters” value [1] is reported as “reduced” and the “expression of E-cadherin” value (H1299 cells; basal, knockdown vs Scr) is reported as “increased the expression”. The “expression of N-cadherin and Vimentin” value (H1299 cells; basal, knockdown vs Scr) was “reduced the expression”, the “expression of Slug” value (H1299 cells; basal, knockdown vs Scr) was “significantly repressed” and the “expression of Twist1, Snail, Zeb1, or Zeb2” value (H1299 cells; basal, knockdown vs Scr) was “not changed”. The “changes of E-cadherin, N-cadherin, Vimentin and Slug expression with TGF-β1” value (H1299 cells; presence of TGF-β1 relative to basal) was “blocked changes of expression levels” and the “expression of proliferation- and cell cycle-related genes (except CCND2)” value (H1299 cells; qPCR, vs Scr) was “did not affect”.
